Measured values taken from US6462064B1, “Apoptosis inducing adamantyl derivatives and their usage as anti-cancer agents, especially for cervical cancers and dysplasias” (Galderma Research & Development S.N.C., priority 1996, dated 2002).
“Also recorded” adds a separate entry of the source.

Each compound was assayed on cancer cells (assay: List of active compounds: types of cancers and precancers active against).
Format: cell-based
Description: As discussed, the adamantyl retinoid derivatives according to the invention which induce apoptosis are useful for treating many different types of cancers.
`CC(=O)OCc1ccc(-c2ccc3cc(C(=O)O)ccc3c2)cc1C12CC3CC(CC(C3)C1)C2` [Compound 5, 6-[3-(1-adamantyl)-4-acetoxymethylphenyl]-2-naphthoic acid] was tested, and the “Types of Cancers and Precancers Active Against” value (shortened to “Types”) was “head and neck, leukemia, lung,; also recorded: lymphoma, myeloma, pancre-; also recorded: atic, skin”. With `COc1ccc(-c2ccc3cc(C(=O)N4CCNCC4)ccc3c2)cc1C12CC3CC(CC(C3)C1)C2` [Compound 7, N-{6-[3-(1-adamantyl)-4-methoxyphenyl]-2-naphthalenecarboxoyl}piperizide] the “Types” value was “brain, breast, head and neck,; also recorded: myeloma, prostate, skin”. For `COc1ccc(C(=O)C#Cc2ccc(C(=O)O)cc2)cc1C12CC3CC(CC(C3)C1)C2` [Compound 8, 4-{3-oxo-3-[3-(1-adamantyl)-4-methoxyphenyl]-1-propynyl}benzoic acid], the “Types” value was “brain, breast, leukemia, lung,; also recorded: lymphoma, skin, liver”. `COc1cc(NC(=O)c2ccc(OC)c(C34CC5CC(CC(C5)C3)C4)c2)ccc1C(=O)O` [Compound 9, 4-[N-(3-(1-adamantyl)-4-methoxybenzoyl)amido]2-methoxybenzoic acid] was tested, and the “Types” value was “head and neck, kidney, ovarian, and skin”. In the case of `COc1ccc(-c2nc3ccc(C)cc3[nH]2)cc1C12CC3CC(CC(C3)C1)C2` [Compound 10, 2-[3-(1-adamantyl)-4-methoxyphenyl]-5-methylbenzimidazole], the “Types” value is reported as “leukemia, lymphoma, myeloma”. With `O=C(O)c1ccc2cc(-c3ccc(C(O)CO)c(C45CC6CC(CC(C6)C4)C5)c3)ccc2c1` (centres unmarked) [Compound 11, 6-[3-(1-adamantyl)-4-(1,2-dihydroxyethyl)phenyl]-2-naphthoic acid] the “Types” value was “brain, breast, leukemia,; also recorded: pancreatic, skin”. `Cc1cc(O)c(C23CC4CC(CC(C4)C2)C3)cc1-c1ccc2cc(C(=O)O)ccc2c1` [Compound 12, 6-[3-(1-adamantyl)-4-hydroxy-6-methylphenyl]-2-naphthoic acid] was tested, and the “Types” value was “head and neck, leukemia,; also recorded: pancreatic”. With `COc1cc(C)c(-c2ccc3cc(C(=O)O)ccc3c2)cc1C12CC3CC(CC(C3)C1)C2` [Compound 13, 6-[3-(1-adamantyl)-4-methoxy-6-methylphenyl]-2-naphthoic acid] the “Types” value was “brain, head and neck, leukemia,; also recorded: pancreatic”. With `OCc1ccc2cc(-c3ccc(O)c(C45CC6CC(CC(C6)C4)C5)c3)ccc2c1` [Compound 14, 6-[3-(1-adamantyl)-4-hydroxyphenyl]-2-hydroxymethylnaphthalene] the “Types” value was “bladder, kidney, skin”. In the case of `COc1ccc(COc2ccc(C(=O)O)cc2)cc1C12CC3CC(CC(C3)C1)C2` [Compound 15, 4-[3-(1-adamantyl)-4-methoxybenzyloxy]benzoic acid], the “Types” value is reported as “breast, leukemia, prostate”. In the case of `COc1ccc(-c2cc3cc(C(=O)O)ccc3o2)cc1C12CC3CC(CC(C3)C1)C2` [Compound 16, 2-[3-(1-adamantyl)-4-methoxyphenyl]-5-benzofurancarboxylic acid], the “Types” value is reported as “brain, breast, prostate”. `COC(=O)c1ccc2cc(-c3ccc(O)c(C45CC6CC(CC(C6)C4)C5)c3)ccc2c1` [Compound 17, 6-[3-(1-adamantyl)-4-hydroxyphenyl]-2-naphthoic acid methyl ester] was tested, and the “Types” value was “leukemia”. `COC(=O)c1cc(O)c2cc(-c3ccc(OC)c(C45CC6CC(CC(C6)C4)C5)c3)ccc2c1C` [Compound 18, 1-methyl-4-hydroxy-6-[3-(1-adamantyl)-4-methoxyphenyl]-2-naphthoic acid methyl ester] was tested, and the “Types” value was “lymphoma, liver”. In the case of `COc1ccc(C(=O)Nc2ccc(C(=O)N3CCOCC3)cc2)cc1C12CC3CC(CC(C3)C1)C2` [Compound 19, N-{4-[N-(3-(1-adamantyl)-4-methoxybenzoyl)amido]benzoyl}morpholide], the “Types” value is reported as “kidney, myeloma, prostate, skin”. For `COc1ccc(C(=O)Oc2ccc(C(=O)O)c(F)c2)cc1C12CC3CC(CC(C3)C1)C2` [Compound 20, 4-[3-(1-adamantyl)-4-methoxybenzoyloxy]-2-fluorobenzoic acid], the “Types” value was “lymphoma, skin”. `COc1ccc(C(=O)Oc2ccc(C(=O)O)cc2F)cc1C12CC3CC(CC(C3)C1)C2` [Compound 21, 4-hydroxycarbonyl-2-fluorophenyl ester of 3-(1-adamantyl)-4-methoxybenzoic acid] was tested, and the “Types” value was “leukemia”. `CCc1ccc(-c2ccc3cc(C(=O)O)ccc3c2)cc1C12CC3CC(CC(C3)C1)C2` [Compound 22, 6-[3-(1-adamantyl)-4-ethylphenyl]-2-naphthoic acid] was tested, and the “Types” value was “breast, leukemia, myeloma”. `O=C(O)c1ccc2cc(-c3ccc(OCCCO)c(C45CC6CC(CC(C6)C4)C5)c3)ccc2c1` [Compound 23, 6-[3-(1-adamantyl)-4-(3-hydroxypropoxy)phenyl]-2-naphthoic acid] was tested, and the “Types” value was “breast, leukemia, lymphoma”. `NC(=O)c1ccc(-c2ccc3cc(C(=O)O)ccc3c2)cc1C12CC3CC(CC(C3)C1)C2` [Compound 24, 6-[3-(1-adamantyl)-4-aminocarbonylphenyl]-2-naphthoic acid] was tested, and the “Types” value was “leukemia, lymphoma”. With `O=C(CC(=O)C12CC3CC(CC(C3)C1)C2)Nc1ccc(C(=O)O)cc1` [Compound 25, N-(4-carboxyphenyl)-3-(1-adamantyl)-3-oxopropionamide] the “Types” value was “lymphoma”. For `COc1ccc(C(O)COc2ccc(C(=O)O)c(O)c2)cc1C12CC3CC(CC(C3)C1)C2` (centres unmarked) [Compound 26, 2-hydroxy-4-{2-[3-(1-adamantyl)-4-methoxyphenyl]-2-hydroxyethoxy}benzoic acid], the “Types” value was “lymphoma”. For `O=C(O)c1ccc2cc(-c3ccc(OC[C@@H](O)CO)c(C45CC6CC(CC(C6)C4)C5)c3)ccc2c1` [Compound 27, (S)-6-[3-(1-adamantyl)-4-(2S,3-dihydroxypropoxy)phenyl]-2-naphthoic acid], the “Types” value was “leukemia”. For `COc1cc(C(=O)/C=C/c2ccc(C(=O)O)cc2)ccc1C12CC3CC(CC(C3)C1)C2` [Compound 28, (E) 4-{3-oxo-3-[3-methoxy-4-(1-adamantyl)phenyl]prop-1-enyl}benzoic acid], the “Types” value was “leukemia”. `COCCOCOc1ccc(C(=O)/C=C/c2ccc(C(=O)O)cc2)cc1C12CC3CC(CC(C3)C1)C2` [Compound 29, (E) 4-{3-oxo-3-[4-(2-methoxyethoxymethoxy)-3-(1-adamantyl)phenyl]prop-1-enyl}benzoic acid] was tested, and the “Types” value was “brain, leukemia, lung,; also recorded: lymphoma, prostate”. For `NC(=O)CCCCCOc1ccc(/C=C/c2ccc(C(=O)O)cc2)cc1C12CC3CC(CC(C3)C1)C2` [Compound 30, (E) 4-{2-[4-(6-aminocarbonylpentyloxy)-3-(1-adamantyl)phenyl]ethenyl}benzoic acid], the “Types” value was “lymphoma, myeloma”. With `COc1ccc(C(=N)Nc2ccc(C(=O)O)cc2)cc1C12CC3CC(CC(C3)C1)C2` [Compound 31, 3-(1-adamantyl)-4-methoxy-N-(4-carboxyphenyl)benzamidine] the “Types” value was “leukemia”.
